Reference: patent US20250255867A1 (Kadmon Corporation, LLC, priority 2022, published 2025)

Experiment: Example 2: safety (AE, SAE, relative dose intensity)
Assay type: in vivo
Procedure: All responses were assessed by the study site investigators.

## CC(C)NC(=O)COc1cccc(-c2nc(Nc3ccc4[nH]ncc4c3)c3ccccc3n2)c1 [Belumosudil, 2-{3-[4-(1H-indazol-5-ylamino)-2-quinazolinyl]phenoxy}-N-(propan-2-yl) acetamide]
200 mg daily (n = 66)
  ALT increased: 4 (6) n (%)
  AST increased: 5 (8) n (%)
  Any AE: 65 (99) n (%)
  Bilirubin conjugated increased: 1 (2) n (%)
  Blood alkaline phosphatase increased: 4 (6) n (%)
  Cough, all grades: 20 (30) n (%)
  Deaths: 8 (12) n (%)
  Diarrhea, all grades: 23 (35) n (%)
  Drug-related AEs: 49 (74) n (%)
  Drug-related SAEs: 5 (8) n (%)
  Dyspnea, all grades: 21 (32) n (%)
  Fatigue, all grades: 30 (46) n (%)
  GGT increased: 6 (9) n (%)
  Grade ≥3 AEs: 37 (56) n (%)
  Headache, all grades: 13 (20) n (%)
  Hyperglycemia, Grade ≥3: 3 (5) n (%)
  Hypertension, Grade ≥3: 4 (6) n (%)
  Hypoalbuminemia: 2 (3) n (%)
  LFT increased: 1 (2) n (%)
  Liver-related AEs: 12 (18) n (%)
  Muscle spasms, all grades: 13 (20) n (%)
  Nausea, all grades: 23 (35) n (%)
  Peripheral edema, all grades: 17 (26) n (%)
  Pneumonia, Grade ≥3: 6 (9) n (%)
  SAEs: 27 (41) n (%)
  Transaminases increased: 1 (2) n (%)
  Upper respiratory tract infection, all grades: 17 (26) n (%)
  Vomiting, all grades: 18 (27) n (%)
200 mg twice daily (n = 66)
  ALT increased: 7 (11) n (%)
  AST increased: 8 (12) n (%)
  Any AE: 66 (100) n (%)
  Bilirubin conjugated increased: 0 n (%)
  Blood alkaline phosphatase increased: 6 (9) n (%)
  Cough, all grades: 17 (26) n (%)
  Deaths: 6 (9) n (%)
  Diarrhea, all grades: 21 (32) n (%)
  Drug-related AEs: 40 (61) n (%)
  Drug-related SAEs: 2 (3) n (%)
  Dyspnea, all grades: 12 (18) n (%)
  Fatigue, all grades: 20 (30) n (%)
  GGT increased: 10 (15) n (%)
  Grade ≥3 AEs: 34 (52) n (%)
  Headache, all grades: 18 (27) n (%)
  Hyperglycemia, Grade ≥3: 3 (5) n (%)
  Hypertension, Grade ≥3: 4 (6) n (%)
  Hypoalbuminemia: 2 (3) n (%)
  LFT increased: 0 n (%)
  Liver-related AEs: 19 (29) n (%)
  Muscle spasms, all grades: 13 (20) n (%)
  Nausea, all grades: 18 (27) n (%)
  Peripheral edema, all grades: 13 (20) n (%)
  Pneumonia, Grade ≥3: 4 (6) n (%)
  SAEs: 23 (35) n (%)
  Transaminases increased: 1 (2) n (%)
  Upper respiratory tract infection, all grades: 18 (27) n (%)
  Vomiting, all grades: 10 (15) n (%)
Total (N = 132)
  ALT increased: 11 (8) n (%)
  AST increased: 13 (10) n (%)
  Any AE: 131 (99) n (%)
  Bilirubin conjugated increased: 1 (1) n (%)
  Blood alkaline phosphatase increased: 10 (8) n (%)
  Cough, all grades: 37 (28) n (%)
  Diarrhea, all grades: 44 (33) n (%)
  Drug-related AEs: 89 (67) n (%)
  Drug-related SAEs: 7 (5) n (%)
  Dyspnea, all grades: 33 (25) n (%)
  Fatigue, all grades: 50 (38) n (%)
  GGT increased: 16 (12) n (%)
  Grade ≥3 AEs: 71 (54) n (%)
  Headache, all grades: 31 (24) n (%)
  Hyperglycemia, Grade ≥3: 6 (5) n (%)
  Hypertension, Grade ≥3: 8 (6) n (%)
  Hypoalbuminemia: 4 (3) n (%)
  LFT increased: 1 (1) n (%)
  Liver-related AEs: 31 (24) n (%)
  Muscle spasms, all grades: 26 (20) n (%)
  Nausea, all grades: 41 (31) n (%)
  Peripheral edema, all grades: 30 (23) n (%)
  Pneumonia, Grade ≥3: 10 (8) n (%)
  SAEs: 50 (38) n (%)
  Transaminases increased: 2 (2) n (%)
  Upper respiratory tract infection, all grades: 35 (27) n (%)
  Vomiting, all grades: 28 (21) n (%)
Total (N = 132), six died during LTFU (>28 days after last dose)
  Deaths: 14 (11) n (%)
In vivo
  Discontinued because of overall AEs: 21%
  Discontinued because of possible drug-related AEs: 12%
  Grade 3 or 4 hyperglycemia: 5%
  Grade 3 or 4 hypertension: 6%
  Grade 3 or 4 pneumonia: 8%
  Grade ≥3 anemia: 3%
  Grade ≥3 cytopenias: < 4%
  Grade ≥3 neutropenia: 2%
  Grade ≥3 thrombocytopenia: 2%
  Increased GGT (liver-related AE): 12%
  Median RDI: 99.7%
  SAE pneumonia, subjects: 7%
  Subjects who died during the study: Fourteen
  Subjects who received an RDI >95%: Eighty-one
  Subjects with >1 SAE: Thirty eight
  Subjects with increased liver function tests (LFTs): Twenty-four
Unrelated to belumosudil
  Cases of Epstein-Barr viremia that required treatment: 1 case
  Cases of cytomegalovirus (CMV) reactivation: 1 case
Unrelated to belumosudil, listed as belumosudil
  Cases of cytomegalovirus (CMV) reactivation: one
